Results taken from patent publication US12162888B2, “Carboxamides as ubiquitin-specific protease inhibitors” (Valo Early Discovery, Inc., priority 2018, dated 2024).

Molecular target: T1, USP28 (His-tagged USP28-FL-mammalian) (Homo sapiens, UniProt Q96RU2)
T1 construct: Expression of USP28 (1-1077)-TEV-6*His (pTT5 vector) was carried out in Expi293f cells; made in house; host or cells: Expi293F cells (pTT5 vector)
T1 sequence (Q96RU2 1-1077): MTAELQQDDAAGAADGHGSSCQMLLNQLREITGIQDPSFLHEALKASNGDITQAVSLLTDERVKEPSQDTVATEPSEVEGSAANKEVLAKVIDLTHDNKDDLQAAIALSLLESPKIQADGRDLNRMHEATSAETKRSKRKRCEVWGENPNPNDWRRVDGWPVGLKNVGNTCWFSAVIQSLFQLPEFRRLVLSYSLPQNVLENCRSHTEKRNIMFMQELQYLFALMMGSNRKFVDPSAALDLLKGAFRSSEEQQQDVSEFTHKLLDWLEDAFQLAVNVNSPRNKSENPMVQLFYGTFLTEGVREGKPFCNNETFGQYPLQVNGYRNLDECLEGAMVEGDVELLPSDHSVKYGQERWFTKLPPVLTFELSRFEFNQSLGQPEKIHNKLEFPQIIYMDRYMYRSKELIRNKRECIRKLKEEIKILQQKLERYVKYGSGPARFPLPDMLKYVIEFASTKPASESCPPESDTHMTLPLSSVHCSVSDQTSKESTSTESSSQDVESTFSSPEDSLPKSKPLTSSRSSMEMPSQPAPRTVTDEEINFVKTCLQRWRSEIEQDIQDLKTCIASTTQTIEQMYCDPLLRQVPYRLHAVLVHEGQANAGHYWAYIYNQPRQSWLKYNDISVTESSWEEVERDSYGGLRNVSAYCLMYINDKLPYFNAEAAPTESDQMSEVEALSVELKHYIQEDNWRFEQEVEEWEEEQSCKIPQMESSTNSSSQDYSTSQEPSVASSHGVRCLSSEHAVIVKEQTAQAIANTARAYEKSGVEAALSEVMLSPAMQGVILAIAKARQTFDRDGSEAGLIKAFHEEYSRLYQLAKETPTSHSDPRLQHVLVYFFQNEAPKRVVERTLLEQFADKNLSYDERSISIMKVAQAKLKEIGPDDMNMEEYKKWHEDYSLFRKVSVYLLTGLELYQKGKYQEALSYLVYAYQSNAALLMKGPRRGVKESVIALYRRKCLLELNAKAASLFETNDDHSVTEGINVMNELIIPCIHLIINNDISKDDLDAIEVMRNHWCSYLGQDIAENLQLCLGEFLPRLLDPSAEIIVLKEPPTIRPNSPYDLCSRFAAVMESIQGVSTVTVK
Test: Ubiquitin-Rhodamine 110 Assay for USP28 Activity, Example A-1(a)
Type: biochemical
Details: Ubiquitin-Rhodamine 110 assay, read-out: USP28 A-1(a) IC50 range
How it was run: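 Full-length His-tagged human USP28 (1-1077), expressed in Expi293F cells, was used at […] with 25 nM Ub-Rh110 (<<Km) in 20 mM Tris pH 8.0, 3 mM BME, 0.03% BGG and 0.01% Triton X-100. Compounds (25 μM-1.3 nM, 10-point) were preincubated with enzyme for 30 min, and the reaction ran 45 min at room temperature before a citric acid stop. Fluorescence was read at 485/535 nm, and IC50 came from 4-parameter fits of percent inhibition.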

Row | Structure (SMILES) | IC50 [nM]
1 | Cc1ccc2c(N)c(C(=O)N[C@H]3COc4cc(N5CCNCC5)ccc4[C@H]3C)sc2n1 (single isomer, unassigned) [Example 11-15] | > 2000
2 | Cc1ccc2c(N)c(C(=O)N[C@H]3COc4cc(N5CCNCC5)ccc4[C@@H]3C)sc2n1 (single isomer, unassigned) [Example 11-16] | > 2000
3 | Cc1ccc2c(N)c(C(=O)N[C@H]3COc4cc(N5CCNCC5)ccc4[C@@H]3C)sc2n1 (single isomer, unassigned) [Example 11-17] | > 2000
4 | Cc1ccc2c(N)c(C(=O)N[C@@H]3COc4cc(N5CCNCC5)ccc4[C@@H]3C)sc2n1 (single isomer, unassigned) [Example 11-18] | 200 to 2000
5 | Cc1cnc2c(N)c(C(=O)N[C@@H]3CCc4cc(N5CCNCC5)ccc4C3)sc2n1 (single isomer, unassigned) [Example 11-20] | 200 to 2000
6 | Cc1ccc2c(N)c(C(=O)N[C@H]3CCc4cc(N5CCNCC5)ccc4C3)sc2n1 (single isomer, unassigned) [Example 11-21] | 200 to 2000
7 | Cc1ccc2c(N)c(C(=O)N[C@@H]3CCc4cc(N5CCNCC5)ccc4C3)sc2n1 (single isomer, unassigned) [Example 11-22] | 50 to 200
8 | CN[C@H]1CCN(c2ccc3c(c2)CC[C@H](NC(=O)c2sc4nc(C)cnc4c2N)C3)C1 (single isomer, unassigned) [Example 11-25] | 50 to 200
9 | CN[C@H]1CCN(c2ccc3c(c2)CC[C@@H](NC(=O)c2sc4nc(C)cnc4c2N)C3)C1 (single isomer, unassigned) [Example 11-26] | > 2000
10 | CN[C@@H]1CCN(c2ccc3c(c2)CC[C@H](NC(=O)c2sc4nc(C)cnc4c2N)C3)C1 (single isomer, unassigned) [Example 11-27] | 50 to 200
11 | CN[C@@H]1CCN(c2ccc3c(c2)CC[C@@H](NC(=O)c2sc4nc(C)cnc4c2N)C3)C1 (single isomer, unassigned) [Example 11-28] | 200 to 2000
12 | Cc1cnc2c(N)c(C(=O)N[C@H]3CCc4cc(N5C[C@@H]6C[C@H]5CN6)ccc4C3)sc2n1 (single isomer, unassigned) [Example 11-29] | 50 to 200
13 | Cc1cnc2c(N)c(C(=O)N[C@@H]3CCc4cc(N5C[C@@H]6C[C@H]5CN6)ccc4C3)sc2n1 (single isomer, unassigned) [Example 11-30] | 200 to 2000
14 | Cc1cnc2c(N)c(C(=O)N[C@H]3CCc4cc(N5C[C@H]6C[C@@H]5CN6)ccc4C3)sc2n1 (single isomer, unassigned) [Example 11-31] | 50 to 200
15 | Cc1cnc2c(N)c(C(=O)N[C@@H]3CCc4cc(N5C[C@H]6C[C@@H]5CN6)ccc4C3)sc2n1 (single isomer, unassigned) [Example 11-32] | 200 to 2000
16 | Cc1nc2sc(C(=O)N[C@H]3CCc4cc(N5CCNCC5)ccc4C3)c(N)c2s1 (single isomer, unassigned) [Example 11-33] | 200 to 2000
17 | Cc1nc2sc(C(=O)N[C@@H]3CCc4cc(N5CCNCC5)ccc4C3)c(N)c2s1 (single isomer, unassigned) [Example 11-34] | 50 to 200
18 | Cc1cnc2c(N)c(C(=O)N[C@@H]3CCc4cc(N5CCNCC5)cc(F)c4C3)sc2n1 (single isomer, unassigned) [Example 11-37] | 200 to 2000
19 | Cc1cnc2c(N)c(C(=O)N[C@H]3CCc4cc(N5CCNCC5)cc(F)c4C3)sc2n1 (single isomer, unassigned) [Example 11-38] | 50 to 200
20 | Cc1ccc2c(N)c(C(=O)N[C@H]3CCc4cc(N5CC6CNCC(C5)O6)cc(F)c4C3)sc2n1 (single isomer, unassigned) [Example 11-39] | 200 to 2000

Row | Structure (SMILES) | IC50 [nM]
21 | Cc1ccc2c(N)c(C(=O)N[C@@H]3CCc4c(C#N)c(N5CCNCC5)cc(F)c4C3)sc2n1 (single isomer, unassigned) [Example 14-9] | 200 to 2000
22 | Cc1ccc2c(N)c(C(=O)N[C@H]3CCc4c(C#N)c(N5CCNCC5)cc(F)c4C3)sc2n1 (single isomer, unassigned) [Example 14-10] | 1 to 50
23 | Cc1cnc2c(N)c(C(=O)N[C@@H]3CCc4c(C#N)c(N5CCNCC5)cc(F)c4C3)sc2n1 (single isomer, unassigned) [Example 14-11] | 1 to 50
24 | Cc1cnc2c(N)c(C(=O)N[C@H]3CCc4c(C#N)c(N5CCNCC5)cc(F)c4C3)sc2n1 (single isomer, unassigned) [Example 14-12] | 200 to 2000
25 | Cc1nc2sc(C(=O)N[C@@H]3CCc4c(C#N)c(N5CCNCC5)cc(F)c4C3)c(N)c2s1 (single isomer, unassigned) [Example 14-13] | 200 to 2000
26 | Cc1nc2sc(C(=O)N[C@H]3CCc4c(C#N)c(N5CCNCC5)cc(F)c4C3)c(N)c2s1 (single isomer, unassigned) [Example 14-14] | 1 to 50
27 | Cc1ccc2c(N)c(C(=O)N[C@H]3CCc4c(C#N)c(N5CC6CNCC(C5)O6)cc(F)c4C3)sc2n1 (single isomer, unassigned) [Example 14-15] | 1 to 50
28 | Cc1ccc2c(N)c(C(=O)N[C@@H]3CCc4c(C#N)c(N5CC6CNCC(C5)O6)cc(F)c4C3)sc2n1 (single isomer, unassigned) [Example 14-16] | 50 to 200
29 | Cc1ccc2c(N)c(C(=O)N[C@H]3CCc4c(C#N)c(N5CC6CCC(C5)N6)cc(F)c4C3)sc2n1 (single isomer, unassigned) [Example 14-17] | 1 to 50
30 | Cc1ccc2c(N)c(C(=O)N[C@@H]3CCc4c(C#N)c(N5CC6CCC(C5)N6)cc(F)c4C3)sc2n1 (single isomer, unassigned) [Example 14-18] | 50 to 200
31 | Cc1cnc2c(N)c(C(=O)N[C@H]3CCc4c(C#N)c(N5CC6CCC(C5)N6)cc(F)c4C3)sc2n1 (single isomer, unassigned) [Example 14-19] | 1 to 50
32 | Cc1cnc2c(N)c(C(=O)N[C@@H]3CCc4c(C#N)c(N5CC6CCC(C5)N6)cc(F)c4C3)sc2n1 (single isomer, unassigned) [Example 14-20] | 200 to 2000
33 | Cc1nc2sc(C(=O)N[C@H]3CCc4c(C#N)c(N5CC6CCC(C5)N6)cc(F)c4C3)c(N)c2s1 (single isomer, unassigned) [Example 14-21] | 1 to 50
34 | CO[C@H]1CN(c2cc(F)c3c(c2C#N)CC[C@H](NC(=O)c2sc4nc(C)ccc4c2N)C3)C[C@@H]1N (single isomer, unassigned) [Example 14-23] | 1 to 50
35 | CO[C@H]1CN(c2cc(F)c3c(c2C#N)CC[C@@H](NC(=O)c2sc4nc(C)ccc4c2N)C3)C[C@@H]1N (single isomer, unassigned) [Example 14-24] | 200 to 2000
36 | Cc1cnc2c(N)c(C(=O)N[C@@H]3CCc4c(ccc(N5CCNCC5)c4F)C3)sc2n1 (single isomer, unassigned) [Example 21-9] | 50 to 200
37 | Cc1cnc2c(N)c(C(=O)N[C@H]3CCc4c(ccc(N5CCNCC5)c4F)C3)sc2n1 (single isomer, unassigned) [Example 21-10] | > 2000
38 | Cc1cnc2c(N)c(C(=O)N[C@@H]3CCc4cc(N5CCNCC5)c(F)cc4C3)sc2n1 (single isomer, unassigned) [Example 21-11] | 200 to 2000
39 | Cc1cnc2c(N)c(C(=O)N[C@H]3CCc4cc(N5CCNCC5)c(F)cc4C3)sc2n1 (single isomer, unassigned) [Example 21-12] | 1 to 50
40 | Cc1ccc2c(N)c(C(=O)N[C@H]3CCc4c(F)c(N5CC6CCC(C5)N6)cc(F)c4C3)sc2n1 (single isomer, unassigned) [Example 22-5] | 1 to 50
